From US20090270413A1, “DI-T-BUTYLPHENYL PIPERAZINES AS CALCIUM CHANNEL BLOCKERS” (priority 2008, published 2009)

Biological target: T1, Human Cav2.2 channels (Homo sapiens, UniProt Q00975)
T1 construct: expressed in transfected cells
Test: Block of Cav2.2 (N-type) channels expressed in HEK293 cells
Assay type: cell-based
Details: HEK293; for inhibition at 10 µM: read-out: Cav 2.2 % Inh @ 10 μM; for inhibition at 30 µM: read-out: Cav 2.2 % Inh @ 30 μM
Description: Human Cav2.2 channels were stably expressed in HEK293 cells along with alpha2-delta and beta subunits of voltage-gated calcium channels. An inwardly rectifying potassium channel (Kir2.3) was also expressed in these cells to allow more precise control of the cell membrane potential by extracellular potassium concentration. At low bath potassium concentration, the membrane potential is relatively negative, and is depolarized as the bath potassium concentration is raised. In this way, the bath potassium concentration can be used to regulate the voltage-dependent conformations of the channels. Compounds are incubated with cells in the presence of low (4 mM) potassium or elevated (12, 25 or 30 mM) potassium to determine the affinity for compound block of resting (closed) channels at 4 mM potassium or affinity for block of open and inactivated channels at 12, 25 or 30 mM potassium. After the incubation period, Cav2.2 channel opening is triggered by addition of higher concentration of potassium (70 mM final concentration) to further depolarize the cell. The degree of state-dependent block can be estimated from the inhibitory potency of compounds after incubation in different potassium concentrations.
Calcium influx through Cav2.2 channels is determined using a calcium sensitive fluorescent dye in combination with a fluorescent plate reader. Fluorescent changes were measured with either a VIPR (Aurora Instruments) or FLIPR (Molecular Devices) plate reader.
Protocol • 1. Seed cells in Poly-D-Lysine Coated 96 or 384-well plate and keep in a 37° C.-10% CO2 incubator overnight • 2. Remove media, wash cells with 0.2 mL (96-well plate) or 0.05 mL (384-well plate) Dulbecco's Phosphate Buffered Saline (D-PBS) with calcium & magnesium (Invitrogen; 14040) • 3. Add 0.1 mL (96-well plate) or 0.05 mL (384-well plate) of 4 μM fluor-4 (Molecular Probes; F-14202) and 0.02% Pluronic acid (Molecular Probes; P-3000) prepared in D-PBS with calcium & magnesium (Invitrogen; 14040) supplemented with 10 mM Glucose & 10 mM Hepes/NaOH; pH 7.4 • 4. Incubate in the dark at 25° C. for 60-70 min • 5. Remove dye, wash cells with 0.1 mL (96-well plate) or 0.06 mL (384-well plate) of 4, 12, 25, or 30 mM Potassium Pre-polarization Buffer (PPB) • 6. Add 0.1 mL (96-well plate) or 0.03 mL (384-well plate) of 4, 12, 25, 30 mM PPB with or without test compound • 7. Incubate in the dark at 25° C. for 30 min • 8. Read cell plate on VIPR instrument, Excitation=480 nm, Emission=535 nm • 9. With VIPR continuously reading, add 0.1 mL (96-well plate) or 0.03 mL (384-well plate) of Depolarization Buffer (DB), which is 2× the final assay concentration, to the cell plate.
Block of N-type calcium channels is evaluated utilizing the IonWorks HT 384 well automated patch clamp electrophysiology device. This instrument allows synchronous recording from 384 well (48 at a time). A single whole cell recording is made in each well. Whole cell recording is established by perfusion of the internal compartment with amphotericin B.
The voltage protocol is designed to detect use-dependent block. A 2 Hz train of depolarizations (twenty 25 ms steps to +20 mV). The experimental sequence consists of a control train (pre-compound), incubation of cells with compound for 5 minutes, followed by a second train (post-compound). Use dependent block by compounds is estimated by comparing fractional block of the first pulse in the train to block of the 20th pulse.
Parallel patch clamp electrophysiology is performed using IonWorks HT (Molecular Devices Corp) essentially as described by Kiss and colleagues (Kiss et al. 2003; Assay and Drug Development Technologies, 1:127-135). Briefly, a stable HEK 293 cell line (referred to as CBK) expressing the N-type calcium channel subunits (α1B, α2δ, β3a) and an inwardly rectifying potassium channel (Kir2.3) is used to record barium current through the N-type calcium channel. Cells are grown in T75 culture plates to 60-90% confluence before use. […]

T1 sequence (Q00975 whole entry): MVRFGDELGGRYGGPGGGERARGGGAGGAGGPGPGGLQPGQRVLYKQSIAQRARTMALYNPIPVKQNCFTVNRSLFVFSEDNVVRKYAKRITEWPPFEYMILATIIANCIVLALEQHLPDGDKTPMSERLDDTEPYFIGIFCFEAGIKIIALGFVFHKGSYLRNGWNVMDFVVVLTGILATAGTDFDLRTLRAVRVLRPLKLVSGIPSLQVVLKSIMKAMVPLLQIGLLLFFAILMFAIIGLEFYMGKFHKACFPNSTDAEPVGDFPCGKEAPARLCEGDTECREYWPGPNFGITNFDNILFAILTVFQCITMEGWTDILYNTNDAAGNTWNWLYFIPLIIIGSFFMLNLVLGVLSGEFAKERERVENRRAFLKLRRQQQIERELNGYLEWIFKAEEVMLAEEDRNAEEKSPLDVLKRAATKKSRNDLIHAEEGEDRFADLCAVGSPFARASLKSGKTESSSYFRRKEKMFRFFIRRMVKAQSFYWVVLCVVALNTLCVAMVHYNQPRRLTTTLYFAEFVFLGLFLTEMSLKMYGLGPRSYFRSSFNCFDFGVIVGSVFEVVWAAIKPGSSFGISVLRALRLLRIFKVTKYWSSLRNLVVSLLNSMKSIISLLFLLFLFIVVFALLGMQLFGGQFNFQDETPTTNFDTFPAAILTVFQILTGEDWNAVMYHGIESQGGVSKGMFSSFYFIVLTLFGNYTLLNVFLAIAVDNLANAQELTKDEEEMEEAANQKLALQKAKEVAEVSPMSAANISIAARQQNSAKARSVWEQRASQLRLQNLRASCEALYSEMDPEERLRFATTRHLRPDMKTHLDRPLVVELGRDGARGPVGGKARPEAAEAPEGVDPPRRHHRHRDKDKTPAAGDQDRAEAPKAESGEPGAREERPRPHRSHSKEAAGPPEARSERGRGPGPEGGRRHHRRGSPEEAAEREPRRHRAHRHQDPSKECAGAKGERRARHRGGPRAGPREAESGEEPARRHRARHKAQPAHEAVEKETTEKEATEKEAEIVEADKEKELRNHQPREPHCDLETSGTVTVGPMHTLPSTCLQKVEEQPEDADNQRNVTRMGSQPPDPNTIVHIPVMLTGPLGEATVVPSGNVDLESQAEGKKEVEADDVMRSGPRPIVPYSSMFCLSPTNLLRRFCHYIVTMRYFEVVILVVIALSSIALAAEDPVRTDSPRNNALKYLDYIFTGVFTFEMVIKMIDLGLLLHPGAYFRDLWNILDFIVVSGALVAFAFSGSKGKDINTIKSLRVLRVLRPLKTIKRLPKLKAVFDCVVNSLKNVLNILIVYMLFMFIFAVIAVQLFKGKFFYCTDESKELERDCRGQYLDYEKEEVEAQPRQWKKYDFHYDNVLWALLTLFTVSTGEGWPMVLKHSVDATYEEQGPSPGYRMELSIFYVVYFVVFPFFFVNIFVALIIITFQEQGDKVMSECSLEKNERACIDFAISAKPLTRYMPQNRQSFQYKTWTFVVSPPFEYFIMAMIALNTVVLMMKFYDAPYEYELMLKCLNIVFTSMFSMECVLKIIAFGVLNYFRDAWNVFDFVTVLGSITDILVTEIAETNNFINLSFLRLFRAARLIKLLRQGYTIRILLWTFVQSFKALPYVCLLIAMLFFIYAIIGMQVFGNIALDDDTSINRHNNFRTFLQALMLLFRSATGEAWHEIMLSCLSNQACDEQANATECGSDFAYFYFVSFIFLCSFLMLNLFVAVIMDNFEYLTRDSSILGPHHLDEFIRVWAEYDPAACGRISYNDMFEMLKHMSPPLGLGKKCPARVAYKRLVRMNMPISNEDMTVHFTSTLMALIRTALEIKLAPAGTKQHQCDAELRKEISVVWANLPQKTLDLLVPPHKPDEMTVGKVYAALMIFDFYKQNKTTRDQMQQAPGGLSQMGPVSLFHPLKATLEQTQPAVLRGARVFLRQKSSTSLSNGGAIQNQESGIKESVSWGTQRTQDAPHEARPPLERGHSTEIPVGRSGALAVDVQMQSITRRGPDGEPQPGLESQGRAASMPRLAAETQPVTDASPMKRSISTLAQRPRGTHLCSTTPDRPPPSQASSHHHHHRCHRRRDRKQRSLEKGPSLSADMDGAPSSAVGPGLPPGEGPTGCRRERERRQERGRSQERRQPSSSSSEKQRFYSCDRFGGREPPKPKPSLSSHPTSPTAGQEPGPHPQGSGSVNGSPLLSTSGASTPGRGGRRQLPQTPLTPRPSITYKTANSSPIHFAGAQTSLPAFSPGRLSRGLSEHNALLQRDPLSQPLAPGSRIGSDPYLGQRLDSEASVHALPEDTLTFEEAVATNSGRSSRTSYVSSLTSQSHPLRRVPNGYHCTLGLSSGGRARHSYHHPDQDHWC
T1 sequence (P54289 25-956 partner limits assumed): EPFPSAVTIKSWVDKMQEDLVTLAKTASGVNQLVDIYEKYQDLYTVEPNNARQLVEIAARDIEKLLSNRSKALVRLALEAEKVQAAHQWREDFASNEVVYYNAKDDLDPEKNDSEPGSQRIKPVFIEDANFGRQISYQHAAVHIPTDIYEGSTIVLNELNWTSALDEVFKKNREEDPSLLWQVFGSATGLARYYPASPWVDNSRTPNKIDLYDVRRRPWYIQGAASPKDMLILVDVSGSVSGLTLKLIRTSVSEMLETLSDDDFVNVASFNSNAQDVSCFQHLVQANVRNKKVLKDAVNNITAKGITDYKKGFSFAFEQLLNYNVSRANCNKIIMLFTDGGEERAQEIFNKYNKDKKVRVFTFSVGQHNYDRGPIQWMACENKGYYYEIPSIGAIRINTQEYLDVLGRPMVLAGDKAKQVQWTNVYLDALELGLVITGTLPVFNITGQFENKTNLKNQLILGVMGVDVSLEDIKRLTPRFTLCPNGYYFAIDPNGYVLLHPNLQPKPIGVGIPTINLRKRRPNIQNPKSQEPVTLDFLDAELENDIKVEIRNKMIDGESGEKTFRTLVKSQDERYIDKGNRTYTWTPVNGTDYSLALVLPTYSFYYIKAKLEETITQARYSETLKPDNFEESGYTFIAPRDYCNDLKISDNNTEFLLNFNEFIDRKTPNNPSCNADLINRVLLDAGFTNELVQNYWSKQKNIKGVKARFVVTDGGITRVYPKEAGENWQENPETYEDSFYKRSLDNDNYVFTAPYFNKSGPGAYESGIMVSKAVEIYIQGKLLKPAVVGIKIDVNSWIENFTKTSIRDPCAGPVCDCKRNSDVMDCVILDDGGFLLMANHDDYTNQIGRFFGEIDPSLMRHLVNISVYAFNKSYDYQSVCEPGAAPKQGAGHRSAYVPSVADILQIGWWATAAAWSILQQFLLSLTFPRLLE
T1 sequence (P54289 957-1103 partner limits assumed): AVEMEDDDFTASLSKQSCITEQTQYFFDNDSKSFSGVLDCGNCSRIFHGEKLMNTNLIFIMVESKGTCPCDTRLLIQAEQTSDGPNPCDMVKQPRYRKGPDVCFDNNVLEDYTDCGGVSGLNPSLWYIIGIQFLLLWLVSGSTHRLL
T1 sequence (P54284 whole entry partner): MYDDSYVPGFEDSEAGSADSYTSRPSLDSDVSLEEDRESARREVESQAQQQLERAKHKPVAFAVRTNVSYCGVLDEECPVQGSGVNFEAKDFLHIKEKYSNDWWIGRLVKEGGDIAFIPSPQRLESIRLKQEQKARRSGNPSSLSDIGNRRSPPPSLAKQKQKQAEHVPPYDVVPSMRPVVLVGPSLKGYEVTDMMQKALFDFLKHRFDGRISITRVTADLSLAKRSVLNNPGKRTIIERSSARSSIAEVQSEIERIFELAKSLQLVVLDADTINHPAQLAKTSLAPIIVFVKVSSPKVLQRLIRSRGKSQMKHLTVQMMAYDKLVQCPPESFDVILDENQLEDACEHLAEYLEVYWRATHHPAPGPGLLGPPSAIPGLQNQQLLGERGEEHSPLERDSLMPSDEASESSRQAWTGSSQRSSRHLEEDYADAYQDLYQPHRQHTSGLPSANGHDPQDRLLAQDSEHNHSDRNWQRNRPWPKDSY

Row | SMILES | inhibition at 10 µM [%] | inhibition at 30 µM [%]
1 | Cc1cc(C(=O)N2CCN(c3cc(C(C)(C)C)cc(C(C)(C)C)c3)CC2)c(C(F)(F)F)o1 [Compound 1, (4-(3,5-di-tert-butylphenyl)piperazin-1-yl)(5-methyl-2-(trifluoromethyl)furan-3-yl)methanone] | 91 | 101
2 | CC(C)(C)c1cc(N2CCN(C(=O)c3cc(F)cc(C(F)(F)F)c3)CC2)cc(C(C)(C)C)c1 [Compound 12, (4-(3,5-di-tert-butylphenyl)piperazin-1-yl)(3-fluoro-5-(trifluoromethyl)phenyl)methanone] | 84 | 98
3 | CC(C)(C)c1cc(N2CCN(C(=O)c3ccc(S(=O)(=O)C(C)(C)C)s3)CC2)cc(C(C)(C)C)c1 [Compound 21, (5-(tert-butylsulfonyl)thiophen-2-yl)(4-(3,5-di-tert-butylphenyl)piperazin-1-yl)methanone] | 53 | 78
4 | Cc1ccc(S(C)(=O)=O)cc1C(=O)N1CCN(c2cc(C(C)(C)C)cc(C(C)(C)C)c2)CC1 [Compound 26, (4-(3,5-di-tert-butylphenyl)piperazin-1-yl)(2-methyl-5-(methylsulfonyl)phenyl)methanone] | 87 | 98
5 | CCCc1cc(C(=O)N2CCN(c3cc(C(C)(C)C)cc(C(C)(C)C)c3)CC2)sc1C [Compound 44, (4-(3,5-di-tert-butylphenyl)piperazin-1-yl)(5-methyl-4-propylthiophen-2-yl)methanone] | 65 | 81
6 | CC(C)c1ccc(C(=O)N2CCN(c3cc(C(C)(C)C)cc(C(C)(C)C)c3)CC2)cc1 [Compound 17, (4-(3,5-di-tert-butylphenyl)piperazin-1-yl)(4-isopropylphenyl)methanone] | 80 | 97
7 | CC(C)(C)c1cc(N2CCN(C(=O)c3csc(-c4cccc(C(F)(F)F)c4)n3)CC2)cc(C(C)(C)C)c1 [Compound 18, (4-(3,5-di-tert-butylphenyl)piperazin-1-yl)(2-(3-(trifluoromethyl)phenyl)thiazol-4-yl)methanone] | 59 | 83
8 | CC1CCc2sc(C(=O)N3CCN(c4cc(C(C)(C)C)cc(C(C)(C)C)c4)CC3)cc2C1 (stereo not drawn) [Compound 43, (4-(3,5-di-tert-butylphenyl)piperazin-1-yl)(5-methyl-4,5,6,7-tetrahydrobenzo[b]thiophen-2-yl)methanone] | 46 | 57
9 | CC(C)(C)c1cc(N2CCN(C(=O)c3cc4cccnc4nc3C(F)(F)F)CC2)cc(C(C)(C)C)c1 [Compound 19] | 49 | 69
10 | CC(C)(C)c1cc(N2CCN(C(=O)c3cc(C4CC4)n[nH]3)CC2)cc(C(C)(C)C)c1 [Compound 42, (3-cyclopropyl-1H-pyrazol-5-yl)(4-(3,5-di-tert-butylphenyl)piperazin-1-yl)methanone] | 54 | 98
11 | COc1ccc(Cl)cc1C(=O)N1CCN(c2cc(C(C)(C)C)cc(C(C)(C)C)c2)CC1 [Compound 9, (5-chloro-2-methoxyphenyl)(4-(3,5-di-tert-butylphenyl)piperazin-1-yl)methanone] | 91 | 101
12 | CCOc1ccc(C(=O)N2CCN(c3cc(C(C)(C)C)cc(C(C)(C)C)c3)CC2)o1 [Compound 51, (4-(3,5-di-tert-butylphenyl)piperazin-1-yl)(5-ethoxyfuran-2-yl)methanone] | 98 | 100
13 | Cc1oc(C(C)(C)C)cc1C(=O)N1CCN(c2cc(C(C)(C)C)cc(C(C)(C)C)c2)CC1 [Compound 35, (5-tert-butyl-2-methylfuran-3-yl)(4-(3,5-di-tert-butylphenyl)piperazin-1-yl)methanone] | 77 | 95
14 | CC(C)(C)c1cc(N2CCN(C(=O)c3ccncc3)CC2)cc(C(C)(C)C)c1 [Compound 2, (4-(3,5-di-tert-butylphenyl)piperazin-1-yl)(pyridin-4-yl)methanone] | 90 | 94
15 | CC(C)c1cc(C(=O)N2CCN(c3cc(C(C)(C)C)cc(C(C)(C)C)c3)CC2)c2cnn(C(C)C)c2n1 [Compound 27, (4-(3,5-di-tert-butylphenyl)piperazin-1-yl)(1,6-diisopropyl-1H-pyrazolo[3,4-b]pyridin-4-yl)methanone] | 59 | 83
16 | CC(C)(C)c1cc(N2CCN(C(=O)c3cc(-c4ccccc4)nc(-c4ccccc4)c3)CC2)cc(C(C)(C)C)c1 [Compound 50, (4-(3,5-di-tert-butylphenyl)piperazin-1-yl)(2,6-diphenylpyridin-4-yl)methanone] | 20 | 26
17 | CC(C)c1cc(C(=O)N2CCN(c3cc(C(C)(C)C)cc(C(C)(C)C)c3)CC2)on1 [Compound 24, (4-(3,5-di-tert-butylphenyl)piperazin-1-yl)(3-isopropylisoxazol-5-yl)methanone] | 88 | 96
18 | Cn1nc(C(C)(C)C)cc1C(=O)N1CCN(c2cc(C(C)(C)C)cc(C(C)(C)C)c2)CC1 [Compound 11, (3-tert-butyl-1-methyl-1H-pyrazol-5-yl)(4-(3,5-di-tert-butylphenyl)piperazin-1-yl)methanone] | 91 | 97
19 | CCc1cc(C(=O)N2CCN(c3cc(C(C)(C)C)cc(C(C)(C)C)c3)CC2)sc1C [Compound 52, (4-(3,5-di-tert-butylphenyl)piperazin-1-yl)(4-ethyl-5-methylthiophen-2-yl)methanone] | 75 | 88
20 | CC(C)(C)c1cc(N2CCN(C(=O)c3cc4cc(C(F)(F)F)ccc4s3)CC2)cc(C(C)(C)C)c1 [Compound 39, (4-(3,5-di-tert-butylphenyl)piperazin-1-yl)(5-(trifluoromethyl)benzo[b]thiophen-2-yl)methanone] | 15 | 41
21 | CC(C)(C)c1cc(N2CCN(C(=O)c3nsc(Cl)c3Cl)CC2)cc(C(C)(C)C)c1 [Compound 46, (4-(3,5-di-tert-butylphenyl)piperazin-1-yl)(4,5-dichloroisothiazol-3-yl)methanone] | 79 | 89
22 | CC(C)(C)c1cc(N2CCN(C(=O)c3ccc(C(O)(C(F)(F)F)C(F)(F)F)cc3)CC2)cc(C(C)(C)C)c1 [Compound 36, (4-(3,5-di-tert-butylphenyl)piperazin-1-yl)(4-(1,1,1,3,3,3-hexafluoro-2-hydroxypropan-2-yl)phenyl)methanone] | 32 | 73
23 | CC(C)(C)c1cc(N2CCN(C(=O)c3ccc(S(C)(=O)=O)cc3Cl)CC2)cc(C(C)(C)C)c1 [Compound 5, (2-chloro-4-(methylsulfonyl)phenyl)(4-(3,5-di-tert-butylphenyl)piperazin-1-yl)methanone] | 85 | 96
24 | Cc1ccc(C(=O)N2CCN(c3cc(C(C)(C)C)cc(C(C)(C)C)c3)CC2)c(C)c1 [Compound 15, (4-(3,5-di-tert-butylphenyl)piperazin-1-yl)(2,4-dimethylphenyl)methanone] | 96 | 93
